Data on 2 compounds can be found in article PMC7600679, “Benzoxazole-Based Metal Complexes to Reverse Multidrug Resistance in Bacteria” (Antibiotics, 2020).

The subject of assay [1] is MRC-5 human embryonal lung fibroblast cell line. More on the design: method as in earlier work. To be noted: cited from earlier work.
Assay [2] relates to MDR mouse T-cell lymphoma cells. The arrangement: method as in PMID 30396935. To be noted: preliminary results; cited from earlier work.
Assay [3] has as its system C. violaceum 026 sensor strain with AHL producer E. cloacae 31298. Briefly: Quorum sensing inhibition (agar diffusion, violacein production). To be noted: disc with 10 μL of 1 mM stock; reduction of violacein zone. It counts as cell-based, Chromobacterium violaceum. The protocol:
(§1) The following bacterial strains were applied in the QS tests: C. violaceum 026 as sensor strain and E. cloacae 31298 isolated from clinical wound (used as N-acyl-homoserine lactone (AHL) producer); this strain induced pigment production by C. violaceum and is a model strain to study QS interactions.
LB* was applied for these experiments. The sensor strain C. violaceum 026 and the AHL producer strains E. cloacae 31298 were inoculated as parallel lines and incubated at room temperature for 24–48 h. The inhibition of bacterial communication was determined by the agar diffusion method. Filter paper discs (7.0 mm in diameter) were impregnated with 10 μL of stock solutions (1 mM) of the compounds in DMSO. The discs were placed between the parallel lines of the sensor and the AHL producer strains. The plates were kept at room temperature for another 24–48 h, and the interactions between the strains and compounds were determined as the reduction in the size of the zone of purple pigment (violacein) production in millimeters. PMZ was applied as a positive control.

In assay [4] the test system is E. coli AG100. Briefly: Real-time ethidium bromide accumulation (efflux pump inhibition, AcrAB-TolC). The format is cell-based, Escherichia coli. The following applies: compounds at ¼ MIC, EB 1 μg/mL, minute 30. As for the experimental part: (§2) Since multidrug resistance EPs are very important factors contributing to multidrug resistance (MDR) in both Gram-positive and Gram-negative bacteria, the inhibition of these pumps could reverse the resistant phenotype and restore the activity of antibiotics. The effect of compounds on ethidium bromide (EB) accumulation was determined by the automated EB method. This assay was used to determine how much of the fluorescent dye and pump substrate EB was accumulated by the bacterial cells in the presence of the tested compounds. The real-time accumulation of EB was monitored for 30 min in both S. aureus and E. coli strains.
(§3) The accumulation of the efflux pump substrate EB was monitored by the automated EB method using a LightCycler real-time thermocycler (LightCycler 1.5, Roche, Indianapolis, IN, USA). An aliquot of an overnight culture of the S. aureus strains in TSB medium was inoculated into fresh TSB medium, and it was incubated until it reached an optical density (OD) of 0.6 at 600 nm. In the case of E. coli strains, the medium applied in the assay was LB broth; the preparation of the inoculum was similar to the one of S. aureus. The cells were washed with phosphate buffered saline (PBS; pH 7.4) and centrifuged at 13,000 × g for 3 min, the pellets were re-suspended in PBS (pH 7.4), and the OD was calibrated to 0.6 at 600 nm. The compounds were measured at ¼ MIC concentration (in double-concentrated form) to the EB solution in PBS. The final concentration of EB was determined according to the MIC and the fluorescent signal produced by this amount of EB. In the case of all strains, the concentration of EB was 1 μg/mL. Then, 10 μL of the EB solution plus the compound were pipetted into standard glass capillary tubes of 20 µL maximum volume (Roche, Indianapolis, USA), and 10 μL of bacterial culture (OD of 0.6 at 600 nm) were transferred to the capillaries. The capillaries containing the samples were placed into the carousel, and the fluorescence was monitored at the FL-2 channel in every minute on a real-time basis.
(§4) Based on the data obtained, the relative fluorescence index (RFI) of the last time point (minute 30) was determined as follows:RFI = (RFtreated − RFuntreated)/RFuntreated(1) where RFtreated is the relative fluorescence (RF) at the last time point of the EB retention curve in the presence of an inhibitor, and RFuntreated is the relative fluorescence at the last time point of the EB retention curve of the untreated control having the solvent control (DMSO).

Assay [5] concerns E. coli AG100 A. In words: Real-time ethidium bromide accumulation (efflux pump inhibition). It counts as cell-based, Escherichia coli. The following applies: compounds at ¼ MIC, EB 1 μg/mL, minute 30. As for the experimental part:
as §2, §3, §4

The test system of assay [6] is MRC-5 human embryonal lung fibroblast cell line. Briefly: Cytotoxicity assay (MTT). It counts as cell-based. To be noted: 24 h. As for the experimental part: The MRC-5 human embryonic lung fibroblast cell line (ATCC CCL-171; provider: LGC Promochem, Teddington, UK) was used in the experiments. The cells were cultivated in Eagle’s Minimal Essential Medium (EMEM; Sigma–Aldrich, St. Louis, MO, USA), supplemented with 1% non-essential amino acid mixture, 10% heat-inactivated fetal bovine serum, 2 mM L-glutamine, 1 mM Na-pyruvate, nystatin, and a penicillin–streptomycin mixture in concentrations of 100 U/L and 10 mg/L, respectively. The supplementary components were obtained from Sigma–Aldrich, St. Louis, MO, USA. The cell culture was kept in a humidified atmosphere (5% CO2, 95% air) at 37 °C.
The activity of increasing concentrations of the compounds on cell growth was determined in 96-well flat-bottomed microtiter plates by two-fold serial dilutions of the benzoxazole derivatives. The adherent human embryonic lung fibroblast cells (10^4/well) was seeded in EMEM medium in 96-well microtiter plates for 4 h prior to the assay. The serial dilutions of the compounds were made in a separate plate, and then pipetted to the plates containing the MRC-5 cell line. Culture plates were incubated at 37 °C for 24 h; at the end of the incubation period, 20 μL of MTT (3-(4,5-dimethylthiazol-2-yl)-2,5-diphenyltetrazolium bromide) solution (from a 5 mg/mL stock solution) was measured to each well. After the incubation at 37 °C for 4 h, 100 μL of sodium dodecyl sulfate (SDS) solution (10% SDS in 0.01 M HCl) was added to each well to dissolve the formazan crystals and the samples were further incubated at 37 °C overnight. Cell growth was calculated by measuring the OD at 540 nm (ref. 630 nm) with a Multiscan EX ELISA reader. The cytotoxicity was expressed as IC50 values, defined as the inhibitory dose that reduces the growth of the cells exposed to the tested compounds by 50%.

For assay [7], the system named is S. aureus 272123 (MRSA). In words: Real-time ethidium bromide accumulation (efflux pump inhibition). It counts as cell-based, Staphylococcus aureus. To be noted: compounds at ¼ MIC (3 at 12.5 µM), VER at 25 µM, EB 1 μg/mL, minute 30. As for the experimental part:
as §2, §3, §4

A further assay has as its system S. aureus ATCC 25923. The assay is described as above. It counts as cell-based, Staphylococcus aureus. The following applies: compounds at ¼ MIC, EB 1 μg/mL, minute 30. As for the experimental part: as §2, §3, §4
Assay [8] concerns Chromobacterium violaceum 026. In words: Minimum inhibitory concentration (broth microdilution, CLSI). It counts as cell-based. The following applies: C. violaceum 026. As for the experimental part: as §1
(§5) The minimum inhibitory concentrations (MICs) of compounds were determined in 96-well plates based on the Clinical and Laboratory Standard Institute guidelines (CLSI guidelines). The compounds were diluted in 100 μL of MHB. Then, 10^−4 dilution of an overnight bacterial culture in 100 μL of medium were added to each well, with the exception of the medium control wells.

The subject of assay [9] is Enterobacter cloacae 31298. Described as above. The following applies: E. cloacae 31298. It counts as cell-based. As for the experimental part:
as §1, §5

In assay [10] the test system is E. coli AG100 A. Described as above. To be noted: E. coli AG100 A (AcrAB-TolC deleted); 18 h, visual inspection. It counts as cell-based, Escherichia coli. The protocol:
Wild-type E. coli K-12 AG100 strain (argE3 thi-1 rpsL xyl mtl Δ(gal-uvrB) supE44) expressing the AcrAB TolC EP at its basal level and its AcrAB-TolC deleted mutant E. coli K-12 AG100 A strain. The strains were donated by Prof. Dr. Hiroshi Nikaido (Department of Molecular and Cell Biology and Chemistry, University of California, Berkeley, CA, USA).
as §5

In assay [11] the test system is S. aureus 272123 (MRSA). The assay is described as above. The format is cell-based, Staphylococcus aureus. To be noted: 18 h, visual inspection. As for the experimental part: (§6) The compounds were further investigated against two Gram-positive strains, S. aureus ATCC 25923 (MSSA), used as the methicillin susceptible reference strain, and the methicillin- and ofloxacin-resistant S. aureus 272123 clinical isolate (MRSA), which was given by Prof. Dr. Leonard Amaral (Institute of Hygiene and Tropical Medicine, Lisbon, Portugal).
as §5

For assay [12], the system named is Staphylococcus aureus ATCC 25923. Described as above. It counts as cell-based. To be noted: S. aureus ATCC 25923; 18 h, visual inspection. The protocol:
as §6, §5

Assay [13] concerns E. coli AG100. The assay is described as above. The format is cell-based, Escherichia coli. To be noted: E. coli AG100; 18 h, visual inspection; read-out: MIC. As for the experimental part: The strains were donated by Prof. Dr. Hiroshi Nikaido (Department of Molecular and Cell Biology and Chemistry, University of California, Berkeley, CA, USA).
as §5

Where two headings read alike, the source gives them in different places.

As to `N.N.[Cl][Pt][Cl]` [cisplatin], the IC50 in assay [1] was 33.5 µM; in [2] it was 11.2 µM.

Turning to `[Ag+].[Ag+].[O-]C(=Cc1nc2ccccc2o1)C(F)(F)F.[O-]C(=Cc1nc2ccccc2o1)C(F)(F)F` [Compound 11], in assay [3], the “Inhibition zone (quorum sensing)” value is 53 mm. The “Relative fluorescence index (RFI)” value is recorded as 0.37 with E. coli AG100 [4], 0.12 in the assay with E. coli AG100 A [5], −0.11 in the assay on S. aureus 272123 (MRSA) [7] and 0.11 in the assay on S. aureus ATCC 25923. This compound also yielded an IC50 in assay [6] of 65.9 µM. Also, the MIC in assay [8] is reported as more than 100 µM; in [9] it was more than 100 µM; with E. coli AG100 A [10], 50 µM; in the assay on S. aureus 272123 (MRSA) [11] it was 12.5 µM; in assay [12], 25 µM; in the assay with E. coli AG100 [13], 25 µM.
